# Results from article PMC12040169 (PLOS Biology, 2025).
# Experiment: in vitro
# Conditions: human, hela cells, % viability
row,Structure (SMILES),"viability at 28.5 h, 10 µM [%]"
1,O=C(Cc1ccccc1F)NCCn1nc(-c2ccco2)ccc1=O [CBK283705],96.9
2,O=C(Cc1ccc(F)cc1)NCCn1nc(-c2ccco2)ccc1=O [CBK283706],86.4
3,O=C(Cc1cccc(F)c1)NCCn1nc(-c2ccco2)ccc1=O [CBK283708],86.3
4,O=C(CN1Cc2ccccc2C1)N1CCCC1c1nc2ccccc2[nH]1 (stereo not drawn) [CBK283710],87.9
5,O=C(CCc1ccco1)N1CCCCC1c1nc2ccccc2[nH]1 (stereo not drawn) [CBK283711],99.9
6,CN(C)c1cccc(C(=O)N2CC[C@@H](c3ccccc3)[C@H](O)C2)c1 [CBK283713],91.6
7,Cc1ccc2c(c1)C(=O)CC1(CCN(C(=O)C3CCCC3)CC1)O2 [CBK283718],85
8,COC(=O)[C@H]1CN(C(=O)c2cn(C)nc2C)C[C@@H]1c1ccc(F)cc1 [CBK283720],96.6
9,O=C(Cn1c2ccccc2c2ccccc21)N1CCn2cnnc2C1 [CBK283724],88.2
10,COC(=O)[C@@H]1CN(C(=O)c2cccs2)C[C@H]1c1ccc(OC)cc1 [CBK283725],87.1
11,O=c1oc(-c2ccoc2)nn1Cc1ccccc1F [CBK283726],98.5
12,COC(=O)[C@H]1CN(C(=O)c2ccccn2)C[C@@H]1c1ccc(F)cc1 [CBK283727],101
13,Cc1nn2c(O)c3c(nc2c1-c1cccs1)CCC3 [CBK283729],85.7
14,COc1ccc(C2(NC(=O)c3cnn(C)c3C)CCCCC2)cc1 [CBK283731],84.8
15,COC(=O)[C@H]1CN(C(=O)c2ccco2)C[C@@H]1c1ccc(F)cc1 [CBK283733],85.8
16,O=C(O)[C@H]1CN(C(=O)c2cccs2)C[C@@H]1c1ccc(F)cc1 [CBK283734],98.1
17,O=C(O)[C@H]1CN(C(=O)c2ccco2)C[C@@H]1c1ccc(F)cc1 [CBK283735],105
18,CCn1c(C(CC(C)C)NC(=O)C2CC2)nc2cccnc21 (stereo not drawn) [CBK283736],103
19,O=C(c1ccc(=O)[nH]n1)N1C2CCC1CC(c1ccc(F)cc1)C2 (stereo not drawn) [CBK283737],94.4
20,Cc1noc(C)c1C(=O)N1C2CCC1CC(c1ccc(F)cc1)C2 (stereo not drawn) [CBK283738],102
21,Cc1nonc1CC(=O)N1C2CCC1CC(c1ccc(F)cc1)C2 (stereo not drawn) [CBK283739],89.1
22,O=C(Cc1ccsc1)N1CCCC1c1nc2ccccc2[nH]1 (stereo not drawn) [CBK283740],87.7
23,Cc1oc(C2CC2)cc1C(=O)N1CCCC1c1nc2ccccc2[nH]1 (stereo not drawn) [CBK283741],88.1
24,O=C(NCCn1nc(-c2ccco2)ccc1=O)C1CCCCC1 [CBK283743],105

row,Structure (SMILES),"viability at 28.5 h, 10 µM [%]"
1,CCn1c(/C=C/C2=CCN(C)CC2)nc2ccccc21 [CBK283745],91.8
2,CN(C)C(=O)Cn1nc(C(c2ccccc2)c2ccccc2)oc1=O [CBK283747],92.6
3,CCc1nn(CC(=O)N2CCCC2)c(=O)c2cc3occc3n12 [CBK283748],93.3
4,CCn1cc(C(=O)NC2(c3cccc(OC)c3)CCCC2)cn1 [CBK283750],101
5,COc1ccc([C@@H]2CCN(C(=O)Cc3ccccc3F)C[C@H]2O)cc1 [CBK283756],100
6,CN(C)C(=O)Cn1nc(-c2cccc(-n3cccc3)c2)oc1=O [CBK283759],103
7,CCOC(=O)c1[nH]c(C)c(/C=C/C2=CCN(C)CC2)c1C [CBK283761],99.3
8,O=C(c1cccnc1)N1C2CCC1CC(c1ccc(F)cc1)C2 (stereo not drawn) [CBK283762],98.3
9,O=C(c1ccncc1)N1C2CCC1CC(c1ccc(F)cc1)C2 (stereo not drawn) [CBK283763],94.3
10,COc1ccc2cc(C)c3n[nH]c(=O)n3c2c1 [CBK283765],89
11,COc1ccc2c(c1)cc(C)c1n[nH]c(=O)n12 [CBK283766],76.7
12,CCC(C(=O)N1CCC(O)(c2ccccn2)CC1)c1ccccc1 (stereo not drawn) [CBK283768],93.1
13,CN1CC(C(=O)N2C3CCC2CC(c2ccc(F)cc2)C3)CC1=O (stereo not drawn) [CBK283769],96.3
14,O=C(c1cc2c(s1)CCC2)N1CCn2c(nnc2C2CC2)C1 [CBK283770],96.6
15,O=c1oc(-c2cccnc2)nn1Cc1ccccc1F [CBK283774],87.1
16,COC(=O)[C@H]1CN(C(=O)c2cccs2)C[C@@H]1c1ccccc1F [CBK283775],87.4
17,CCn1cc(C(=O)N2CCCC2c2nc3ccccc3[nH]2)c(C)n1 (stereo not drawn) [CBK283777],90.2
18,CCn1cc(C(=O)N2CCCCC2c2nc3ccccc3[nH]2)c(C)n1 (stereo not drawn) [CBK283778],91.5
19,Cc1nn(C)cc1C(=O)N1CCCCC1c1nc2ccccc2[nH]1 (stereo not drawn) [CBK283779],84.7
20,Fc1cccc(-c2nc3cnccn3c2NC2CCCC2)c1 [CBK283780],81.4
21,Cn1ccnc1C(NC(=O)N1CCCC1)c1ccc(F)c(F)c1 (stereo not drawn) [CBK283782],89
22,Cn1ccnc1C(NC(=O)C1CCCC1)c1ccc(F)c(F)c1 (stereo not drawn) [CBK283784],97
23,COC(=O)[C@H]1CN(C(=O)c2cscn2)C[C@@H]1c1ccc(F)cc1 [CBK283785],92.3
24,Cn1c(=O)n(CC(=O)N2CCCc3ccccc32)c2cccnc21 [CBK283790],86.7

row,Structure (SMILES),"viability at 28.5 h, 10 µM [%]"
1,CN(C(=O)Cn1c(=O)n(C)c2ncccc21)C1CCCCC1 [CBK283791],81.5
2,CC1CC(C)CN(C(=O)Cn2c(=O)n(C)c3ncccc32)C1 (stereo not drawn) [CBK283794],93.8
3,Cn1c(=O)n(CC(=O)NC23CC4CC(CC(C4)C2)C3)c2cccnc21 [CBK283795],81.7
4,CCn1nc2c(C)cc3ccc(OC)cc3n2c1=O [CBK283796],78.3
5,O=C(c1cccc2ncccc12)N1CCC(c2ccncc2)CC1 [CBK283798],84.2
6,O=C(Cn1nc(-c2cc3c(s2)CCC3)oc1=O)NC1CC1 [CBK283800],101
7,O=C(NC1CC2(CCCC2)Oc2ccccc21)C1CCOC1 (stereo not drawn) [CBK283802],84.3
8,CN1CCC2(CC1)CC(NC(=O)c1ccco1)c1ccccc1O2 (stereo not drawn) [CBK283804],96.6
9,COc1ccccc1CC(=O)N1CCn2cc(C(F)(F)F)nc2C1 [CBK283806],84.5
10,CCn1c(=O)n(CC(=O)NC2CCCCC2)c2cccnc21 [CBK283810],83.6
11,CCn1c(=O)n(CC(=O)NCCc2ccccc2)c2cccnc21 [CBK283812],76.1
12,O=C(c1cccnc1)C1CCN(C(=O)Cc2ccc(Cl)cc2)CC1 [CBK283813],80.4
13,O=C(c1cccnc1)C1CCN(C(=O)Cc2ccccc2F)CC1 [CBK283814],87.5
14,Cc1occc1-c1nn(CCN2CCCCC2)c(=O)o1 [CBK283815],96.8
15,Cc1cccc2cc3c(nc12)OCC(=O)N(Cc1ccco1)C3 [CBK283816],97.6
16,COc1ccc2c(c1)C=C(/C=C/C1=CCN(C)CC1)CO2 [CBK283818],81.1
17,O=C(O)[C@H]1CN(C(=O)c2cccs2)C[C@@H]1c1ccccc1F [CBK283819],87.1
18,O=C(O)[C@H]1CN(C(=O)c2ccco2)C[C@@H]1c1ccccc1F [CBK283820],80.6
19,Cc1cc(C)c2cc(C)c3nn(CC(=O)N(C)C)c(=O)n3c2c1 [CBK283821],81.8
20,CCn1c(=O)n(CC(=O)NCc2ccccc2)c2cccnc21 [CBK283824],101
21,CCn1c(=O)n(CC(=O)N2C(C)CCCC2C)c2cccnc21 (stereo not drawn) [CBK283825],102
22,CC(C)CC(NC(=O)c1ccco1)c1nc2cccnc2n1C (stereo not drawn) [CBK283827],88.8
23,CC(NC(=O)Cc1ccc(F)cc1)c1nc2cccnc2n1C(C)C (stereo not drawn) [CBK283830],88.7
24,Cn1ccnc1C(NC(=O)N1CCCCC1)c1ccc(F)c(F)c1 (stereo not drawn) [CBK283832],107

row,Structure (SMILES),"viability at 28.5 h, 10 µM [%]"
1,O=C(CC1CC2CCC1C2)N1CCC(O)(c2ccccn2)CC1 (stereo not drawn) [CBK283833],92.7
2,O=C(NCCn1nc(-c2cccs2)ccc1=O)c1cccs1 [CBK283836],77
3,CC(C)(C)C(=O)NCCn1nc(-c2cccs2)ccc1=O [CBK283839],103
4,O=C(NCCn1nc(-c2cccs2)ccc1=O)C1CCCC1 [CBK283840],104
5,CCCNC(=O)Cn1c(=O)n(Cc2cccs2)c2ncccc21 [CBK283843],101
6,CC(C)(C)NC(=O)Cn1c(=O)n(Cc2cccs2)c2ncccc21 [CBK283844],104
7,CC(NC(=O)c1ncoc1-c1ccc(F)cc1)c1ccccn1 (stereo not drawn) [CBK283846],90.9
8,Cc1nn(Cc2ccccn2)c(=O)n2cccc12 [CBK283849],95.1
9,O=C(Cn1ncc2cccn2c1=O)NCc1ccc(F)cc1 [CBK283851],82.8
10,O=C(c1cccnc1)C1CCN(C(=O)c2ccccc2F)CC1 [CBK283853],95.1
11,O=c1[nH]nc(-c2cccs2)n1-c1cccnc1 [CBK283854],101
12,CC(C)n1c(=O)n(CC(=O)N2CCc3ccccc32)c2cccnc21 [CBK283855],103
13,CCc1nn2c(O)cc(C)nc2c1-c1cccs1 [CBK283860],90.7
14,O=C(Cn1c(=O)n(Cc2ccco2)c2ncccc21)N1CCCCC1 [CBK283862],89.2
15,O=C(CC1CCCC1)NCCn1nc(-c2ccco2)ccc1=O [CBK283864],106
16,O=c1[nH]nc(-c2cccs2)n1-c1ccncc1 [CBK283868],93.2
17,CCN(CC)C(=O)Cn1nc2c(C)cc3cc(C)ccc3n2c1=O [CBK283871],86.4
18,Cc1ccc2c(c1)cc(C)c1nn(CC(=O)N3CCCC3)c(=O)n12 [CBK283872],101
19,Cc1ccc2c(c1)cc(C)c1nn(CC(=O)NC(C)C)c(=O)n12 [CBK283874],83.5
20,Cc1ccc2c(c1)cc(C)c1nn(CC(=O)NC(C)(C)C)c(=O)n12 [CBK283875],87.5
21,Cc1cc(C)c2c(c1)cc(C)c1nn(CC(=O)NC3CC3)c(=O)n12 [CBK283877],83.5
